Test results published in patent US20070077238A1, “Production of organic and inorganic selenium compounds by lactic acid bacteria” (priority 2005, published 2007).

System: lactic acid bacteria strains
Assay: Growth of lactic acid bacteria strains on media containing selenate or selenite
Format: cell-based, lactic acid bacteria from gastrointestinal tracts of chicken
Conditions: 250 ppm in media
Experimental: Putative strains of LAB were grown on MRS agar plates containing various concentrations of selenate and selenite.

O=[Se](=O)([O-])[O-].[Na+].[Na+] [Selenate, sodium selenate]
Number of lactic acid bacteria strains grown (percentage of bacterial cells that grew) (incubation time 12 h): 75.3 percentage | Number of lactic acid bacteria strains grown (percentage of bacterial cells that grew) (incubation time 24 h): 14.4 percentage | Number of lactic acid bacteria strains grown (percentage of bacterial cells that grew) (incubation time 48 h): 10.3 percentage | Number of lactic acid bacteria strains grown (percentage of bacterial cells that grew) (incubation time >48 h): 0 percentage

O=[Se](O)O [Selenite, sodium selenite]
Number of lactic acid bacteria strains grown (percentage of bacterial cells that grew) (incubation time 12 h): 62.9 percentage | Number of lactic acid bacteria strains grown (percentage of bacterial cells that grew) (incubation time 24 h): 2.1 percentage | Number of lactic acid bacteria strains grown (percentage of bacterial cells that grew) (incubation time 48 h): 24.7 percentage | Number of lactic acid bacteria strains grown (percentage of bacterial cells that grew) (incubation time >48 h): 10.3 percentage
